Test results reported in ChEMBL document CHEMBL5728357, “Small molecule inhibitors of lactate dehydrogenase and methods of use thereof” (2021).
Where “and” joins values, the source holds several entries; their conditions need not be identical. Equal entries are not always repeated.

Assay: Biochemical Assay: Test compounds were placed in a Greiner Bio-One (Monroe, N.C.) 1536-well black solid bottom assay plate. 200 millimolar (mM) Tris HCl, pH 7.4, 100 micromolar […] EDTA and 0.01% TWEEN-20™, final concentration, was used as the assay buffer. The LDHA reagent was 2 nanomolar (nM) Human LDHA (Meridian Life Science, Inc., Memphis, Tenn.), final concentration, in assay buffer.

| IC50 | Compound |
| --- | --- |
| < 100 nM | C/C=C/c1cc(-c2nn(-c3nc(C(=O)O)cs3)c(CC3CC3)c2Cc2ccc([S+](N)(=O)[O-])c(F)c2)ccc1F |
| < 100 nM | N[S+](=O)([O-])c1ccc(Cc2c(-c3ccc(F)c(C(F)(F)F)c3)nn(-c3nc(C(=O)O)cs3)c2CC2CC2)cc1F |
| < 100 nM | CC(C)=Cc1cc(-c2nn(-c3nc(C(=O)O)cs3)c(CC3CC3)c2Cc2ccc([S+](N)(=O)[O-])c(F)c2)ccc1F |
| > 57000 nM | CCOC(=O)c1csc(-n2nc(-c3ccc(F)c(C#CC4CCCC4)c3)c(Cc3cccc([S+](N)(=O)[O-])c3)c2CC2CC2)n1 |
| < 100 nM | N[S+](=O)([O-])c1ccc(Cc2c(-c3ccc(F)c(/C=C/C4CC4)c3)nn(-c3nc(C(=O)O)cs3)c2CC2CC2)cc1F |
| < 100 nM | N[S+](=O)([O-])c1ccc(Cc2c(-c3ccc(F)c(-c4ccc(F)cc4)c3)nn(-c3nc(C(=O)O)cs3)c2CC2CC2)c(F)c1 |
| < 100 nM | N[S+](=O)([O-])c1ccc(Cc2c(-c3ccc(F)c(/C=C/C4CCCC4)c3)nn(-c3nc(C(=O)O)cs3)c2CC2CC2)cc1F |
| in the range around 29000 nM | NS(=O)(=O)c1ccc(Cc2c(CC3CC3)nn(-c3nc(OC=O)cs3)c2-c2cc(F)cc(-c3cccc(F)c3)c2)cc1 |

Continued, compound first:

| Compound | IC50 |
| --- | --- |
| NS(=O)(=O)c1ccc(Cc2c(-c3cccc(-c4ccccc4)c3)nn(-c3nc(C(=O)O)cs3)c2CCC2CC2)cc1 | < 100 nM |
| COc1cccc(-c2cccc(-c3nn(-c4nc(C(=O)O)cs4)c(C4CC4)c3Cc3ccc([SH+](N)[O-])c(F)c3)c2)c1 (stereo not given) | < 100 nM |
| C=C(C)c1cc(-c2nn(-c3nc(C(=O)O)cs3)c(CC3CC3)c2Cc2ccc([S+](N)(=O)[O-])c(F)c2)ccc1F | < 100 nM |
| CCOC(=O)c1csc(-n2nc(-c3cccc(-c4ccc(C)cc4)c3)c(Cc3ccc([SH+](=O)[O-])c(F)c3)c2CC2CC2)n1 | in the range around 29000 nM and > 57000 nM |
| Cc1ccc(-c2cccc(-c3nn(-c4nc(C(=O)O)cs4)c(CC4CC4)c3Cc3ccc([SH+](N)[O-])cc3F)c2)cc1 (stereo not given) | < 100 nM |
| Cc1ccc(-c2cc(-c3nn(-c4nc(C(=O)O)cs4)c(CC4CC4)c3Cc3ccc([SH+](N)[O-])c(F)c3)ccc2F)cc1 (stereo not given) | < 100 nM |
| CC#Cc1cccc(-c2nn(-c3ncc(C(=O)OCC)s3)c(CC3CC3)c2Cc2ccc([SH+](N)[O-])c(F)c2)c1 (stereo not given) | in the range around 29000 nM |
